Assay results reported in US20030176442A1, “Treatment of diabetic ulcers” (priority 2000, published 2003).

Tested on: diabetic foot ulcer
Assay: anecdotal report: insulin-dependent diabetic patient with diabetic foot ulcer treated with sildenafil
Assay type: in vivo, human
Conditions: one patient
From the text: The efficacy of the cGMP PDE5 inhibitors in treating neuropathy in human patients is illustrated by the following anecdotal report. The patient was an insulin-dependent diabetic who had been suffering from erectile dysfunction and who subsequently developed a diabetic foot ulcer. During treatment of their erectile dysfunction with sildenafil it was noted that their foot ulcer, which they had had for approximately two years, was healing. The patient had been through various courses of treatment with minimal results. They had seen vascular surgeons, podiatrists and had visited wound care clinics. Ultimately, they were hopitalised for approximately one month on IV antibiotics etc, and the threat was very real that the patient was going to require a below-the-knee amputation. At times the ulcer would appear to be healing only to re-occur, returning to its pre-treatment size and depth. […] The patient was instructed to continue taking 50 mg of Sildenafil once a day.

In the case of CCCc1nn(C)c2c(=O)[nH]c(-c3cc(S(=O)(=O)N4CCN(C)CC4)ccc3OCC)nc12 [Sildenafil, 5-[2-ethoxy-5-(4-methylpiperazin-1-ylsulphonyl)-phenyl]-1,6-dihydro-1-methyl-3-propylpyrazolo [4,3-d]pyrimidine-7-one], the “outcome of the diabetic foot ulcer” value (ulcer present approximately two years, 50 mg of Sildenafil once a day) was “complete resolution of the diabetic foot ulcer within one month”, the “ulcer size after start of treatment” value (Sildenafil treatment begun for erectile dysfunction) was “decreasing in size” and the “re-occurrence of ulcer on continued treatment” value (same treatment (50 mg once a day) continued for the past two years) was “without re-occurrence”.
